Test results: the supplement of paper PMC6045584
± gives the standard deviation of the averaged measurements.

Tests used:
AFATINIB [1] = compound: T1, CN(C)C/C=C/C(=O)Nc1cc2c(Nc3ccc(F)c(Cl)c3)ncnc2cc1O[C@H]1CCOC1 [AFATINIB]; test: surviving fraction relative to DMSO-only wells; higher = less growth inhibition; conditions: exposure time: 5 days
Outline: (§1)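 Surviving fraction was calculated by normalising CellTiter-Glo luminescence to the median of DMSO-only wells. Tumour cell lines in log phase were seeded in 384-well plates at 250–500 cells per well, and 24 hours later were exposed continuously for five days to inhibitors at 0.5, 1, 5, 10, 50, 100, 500 and 1000 nM.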

[2] = compound: Cn1cc(C2=Nc3cc(NC(=O)C(N)C4CCCCC4)cc4c3C2=CNNC4=O)cn1; test: as above; conditions: exposure time: 5 days
Outline: as §1

BI-2536 [3] = compound: T2, CC[C@@H]1C(=O)N(C)c2cnc(Nc3ccc(C(=O)NC4CCN(C)CC4)cc3OC)nc2N1C1CCCC1 [BI-2536]; test: as above; conditions: exposure time: 5 days
Outline: as §1

CANERTINIB [4] = compound: T3, C=CC(=O)Nc1cc2c(Nc3ccc(F)c(Cl)c3)ncnc2cc1OCCCN1CCOCC1 [CANERTINIB]; test: as above; conditions: exposure time: 5 days
Outline: as §1

SAPACITABINE [5] = compound: T4, CCCCCCCCCCCCCCCC(=O)Nc1ccn([C@@H]2O[C@H](CO)[C@@H](O)[C@@H]2C#N)c(=O)n1 [SAPACITABINE]; test: as above; conditions: exposure time: 5 days
Outline: as §1

TIOGUANINE [6] = compound: T5, Nc1nc2[nH]cnc2c(=S)[nH]1 [TIOGUANINE]; test: as above; conditions: exposure time: 5 days
Outline: as §1

SNX-5422 [7] = compound: T6, CC1(C)CC(=O)c2c(C(F)(F)F)nn(-c3ccc(C(N)=O)c(N[C@H]4CC[C@H](OC(=O)CN)CC4)c3)c2C1 [SNX-5422]; test: as above; conditions: exposure time: 5 days
Outline: as §1

MDV3100 [8] = compound: T7, CNC(=O)c1ccc(N2C(=S)N(c3ccc(C#N)c(C(F)(F)F)c3)C(=O)C2(C)C)cc1F [MDV3100]; test: as above; conditions: exposure time: 5 days
Outline: as §1

AFATINIB [9] = compound: T1, AFATINIB; test: area under dose-response curve of surviving fraction (unscaled, Aref=0) (surviving fraction x log10(nM)); higher = more resistant; conditions: exposure time: 5 days; dose range 0.5-1000 nM
Outline: (§2)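 Inhibitor was applied to tumour cell lines at eight concentrations (0.5 to 1000 nM) for five days in 384-well plates. Luminescence from CellTiter-Glo, scaled to DMSO-only wells, gave surviving fractions in three screens per line, and these were fitted by 3-parameter logistic regression with the drc R package. The area under the curve is an unscaled activity area. Aref was 0, and dose was on a log10 scale.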

[10] = compound: Cn1cc(C2=Nc3cc(NC(=O)C(N)C4CCCCC4)cc4c3C2=CNNC4=O)cn1; test: as above; conditions: exposure time: 5 days; dose range 0.5-1000 nM
Outline: as §2

BI-2536 [11] = compound: T2, BI-2536; test: as above; conditions: exposure time: 5 days; dose range 0.5-1000 nM
Outline: as §2

CANERTINIB [12] = compound: T3, CANERTINIB; test: as above; conditions: exposure time: 5 days; dose range 0.5-1000 nM
Outline: as §2

SAPACITABINE [13] = compound: T4, SAPACITABINE; test: as above; conditions: exposure time: 5 days; dose range 0.5-1000 nM
Outline: as §2

TIOGUANINE [14] = compound: T5, TIOGUANINE; test: as above; conditions: exposure time: 5 days; dose range 0.5-1000 nM
Outline: as §2

SNX-5422 [15] = compound: T6, SNX-5422; test: as above; conditions: exposure time: 5 days; dose range 0.5-1000 nM
Outline: as §2

MDV3100 [16] = compound: T7, MDV3100; test: as above; conditions: exposure time: 5 days; dose range 0.5-1000 nM
Outline: as §2

MDAMB361 BREAST gave a surviving fraction (AFATINIB [1]; 0.5 nM) of 0.932 ± 0.059, a surviving fraction (AFATINIB [1]; 1 nM) of 0.796 ± 0.034 and a surviving fraction (AFATINIB [1]; 5 nM) of 0.81 ± 0.041. The surviving fraction (AFATINIB [1]; 10 nM) was 0.799 ± 0.06, the surviving fraction (AFATINIB [1]; 50 nM) was 0.682 ± 0.088 and the surviving fraction (AFATINIB [1]; 100 nM) was 0.629 ± 0.04. For the same test system, the surviving fraction (AFATINIB [1]; 500 nM) was 0.535 ± 0.02, the surviving fraction (AFATINIB [1]; 1000 nM) was 0.459 ± 0.027 and the surviving fraction ([2]; 0.5 nM) was 0.751 ± 0.014. It also gave a surviving fraction ([2]; 1 nM) of 0.706 ± 0.065, a surviving fraction ([2]; 5 nM) of 0.71 ± 0.023 and a surviving fraction ([2]; 10 nM) of 0.656 ± 0.061. It also gave a surviving fraction ([2]; 50 nM) of 0.456 ± 0.028, a surviving fraction ([2]; 100 nM) of 0.399 ± 0.032 and a surviving fraction ([2]; 500 nM) of 0.43 ± 0.013. The surviving fraction ([2]; 1000 nM) was 0.49 ± 0.013, the surviving fraction (BI-2536 [3]; 0.5 nM) was 0.674 ± 0.046 and the surviving fraction (BI-2536 [3]; 1 nM) was 0.617 ± 0.026. The surviving fraction (BI-2536 [3]; 5 nM) was 0.578 ± 0.051, the surviving fraction (BI-2536 [3]; 10 nM) was 0.637 ± 0.0066 and the surviving fraction (BI-2536 [3]; 50 nM) was 0.565 ± 0.026. The surviving fraction (BI-2536 [3]; 100 nM) was 0.517 ± 0.013, the surviving fraction (BI-2536 [3]; 500 nM) was 0.245 ± 0.0072 and the surviving fraction (BI-2536 [3]; 1000 nM) was 0.21 ± 0.028. The surviving fraction (CANERTINIB [4]; 0.5 nM) was 0.704 ± 0.05, the surviving fraction (CANERTINIB [4]; 1 nM) was 0.718 ± 0.16 and the surviving fraction (CANERTINIB [4]; 5 nM) was 0.642 ± 0.011. For the same test system, the surviving fraction (CANERTINIB [4]; 10 nM) was 0.674 ± 0.078, the surviving fraction (CANERTINIB [4]; 50 nM) was 0.74 ± 0.064 and the surviving fraction (CANERTINIB [4]; 100 nM) was 0.832 ± 0.092. It also gave a surviving fraction (CANERTINIB [4]; 500 nM) of 0.691 ± 0.067, a surviving fraction (CANERTINIB [4]; 1000 nM) of 0.682 ± 0.053 and a surviving fraction (SAPACITABINE [5]; 0.5 nM) of 0.711 ± 0.096. It also gave a surviving fraction (SAPACITABINE [5]; 1 nM) of 0.624 ± 0.029, a surviving fraction (SAPACITABINE [5]; 5 nM) of 0.662 ± 0.06 and a surviving fraction (SAPACITABINE [5]; 10 nM) of 0.648 ± 0.069. For the same test system, the surviving fraction (SAPACITABINE [5]; 50 nM) was 0.868 ± 0.097, the surviving fraction (SAPACITABINE [5]; 100 nM) was 0.771 ± 0.1 and the surviving fraction (SAPACITABINE [5]; 500 nM) was 0.908 ± 0.093. The surviving fraction (SAPACITABINE [5]; 1000 nM) was 0.872 ± 0.041, the surviving fraction (TIOGUANINE [6]; 0.5 nM) was 0.914 ± 0.011 and the surviving fraction (TIOGUANINE [6]; 1 nM) was 0.845 ± 0.011. The surviving fraction (TIOGUANINE [6]; 5 nM) was 0.881 ± 0.0085, the surviving fraction (TIOGUANINE [6]; 10 nM) was 0.884 ± 0.062 and the surviving fraction (TIOGUANINE [6]; 50 nM) was 0.846 ± 0.018. It also gave a surviving fraction (TIOGUANINE [6]; 100 nM) of 0.955 ± 0.054, a surviving fraction (TIOGUANINE [6]; 500 nM) of 0.882 ± 0.067 and a surviving fraction (TIOGUANINE [6]; 1000 nM) of 0.963 ± 0.043. For the same test system, the surviving fraction (SNX-5422 [7]; 0.5 nM) was 0.884 ± 0.064, the surviving fraction (SNX-5422 [7]; 1 nM) was 0.974 ± 0.14 and the surviving fraction (SNX-5422 [7]; 5 nM) was 0.76 ± 0.043. It also gave a surviving fraction (SNX-5422 [7]; 10 nM) of 0.816 ± 0.037, a surviving fraction (SNX-5422 [7]; 50 nM) of 0.443 ± 0.025 and a surviving fraction (SNX-5422 [7]; 100 nM) of 0.879 ± 0.2. For the same test system, the surviving fraction (SNX-5422 [7]; 500 nM) was 0.307 ± 0.0076, the surviving fraction (SNX-5422 [7]; 1000 nM) was 0.294 ± 0.015 and the surviving fraction (MDV3100 [8]; 0.5 nM) was 0.907 ± 0.073. The surviving fraction (MDV3100 [8]; 1 nM) was 0.81 ± 0.075, the surviving fraction (MDV3100 [8]; 5 nM) was 0.935 ± 0.068 and the surviving fraction (MDV3100 [8]; 10 nM) was 0.874 ± 0.074. It also gave a surviving fraction (MDV3100 [8]; 50 nM) of 0.831 ± 0.14, a surviving fraction (MDV3100 [8]; 100 nM) of 0.806 ± 0.074 and a surviving fraction (MDV3100 [8]; 500 nM) of 0.921 ± 0.085. For the same test system, the surviving fraction (MDV3100 [8]; 1000 nM) was 0.831 ± 0.077, the “area under dose-response curve” value (AFATINIB [9]) was 2.35 and the “area under dose-response curve” value [10] was 1.88. For the same test system, the “area under dose-response curve” value (BI-2536 [11]) was 1.68, the “area under dose-response curve” value (CANERTINIB [12]) was 2.35 and the “area under dose-response curve” value (SAPACITABINE [13]) was 2.49. The “area under dose-response curve” value (TIOGUANINE [14]) was 2.95, the “area under dose-response curve” value (SNX-5422 [15]) was 2.27 and the “area under dose-response curve” value (MDV3100 [16]) was 2.85.
